Cytotoxicity data for 97 compounds are collected here from ChEMBL document CHEMBL3507680, “University of Dundee, Gates Library screen for HepG2 cell viability”.

The nature of this series: Human HepG2 cell viability assay in 384 well format. Also on record: dose 125 nL, time 70.5 hour; concentration not given beside the values. The class given is toxicity, cell-based. The following applies: HepG2 cells, read-out: Inhibition.
Take `CCc1ncc(CN2CCC(CCc3ccccc3)CC2)cn1`: the cytotoxicity at 70.5 h was 20.8%.

On to `CN(C)CCCN1CC2(CCN(C3CCCOC3)CC2)OC1=O` (configuration not stated), for which the cytotoxicity at 70.5 h was -6.54%. As for `Cc1ccccc1CN(CCN(C)C)Cc1ncc[nH]1`, the cytotoxicity at 70.5 h was -7.18%. For the compound `Cc1ccc(CNC(C)c2ccc3[nH]c(=O)[nH]c3c2)s1` (configuration not stated), the cytotoxicity at 70.5 h was -1.82%. With `CC(=O)N1CCC2(CC1)CN(C(C)=O)CC21CCNC1=O` (configuration not stated), the cytotoxicity at 70.5 h was determined as 16.2%. For `CN1[C@@H](C(=O)NCC2CC2)C[C@@H]2CN(Cc3ccoc3)C[C@@H]21`, the cytotoxicity at 70.5 h amounted to 13.7%.

For `CN1CCC(n2nc(Cc3cccc(Cl)c3)nc2Cn2cnnn2)CC1`, the cytotoxicity at 70.5 h worked out at 27.5%. To `Cc1ccc(N2C[C@@H]3CN(Cc4ccoc4)CCO[C@@H]3C2)nn1` belongs 10.2%; to `CN(Cc1ccco1)C[C@H]1OC[C@@H]2CCN(Cc3ccccn3)C[C@@H]21`, -8.48%. To `O=C(c1ccccc1F)N1CCCC1Cn1c(=O)oc2ccccc21` (configuration not stated) belongs -0.201%; to `CC(C)NC(=O)N1C[C@@H](F)[C@@H](OCc2nc3ccccc3o2)C1`, -0.085%. As for `Cc1nc(NC(=O)c2c3c(nn2C2CCS(=O)(=O)C2)CCC3)sc1C` (configuration not stated), the cytotoxicity at 70.5 h was 16.2%. To `Cc1cc(C)n(CCCNC(=O)[C@@H](C)NC(=O)OC(C)(C)C)n1` belongs -14.4%.

As to `CC(C)Cn1c(=O)n(CCn2cc(Cl)cn2)c2cc(C(=O)O)cnc21`, the cytotoxicity at 70.5 h was -7.3%. To `Cc1cc(C)n(C2CCCN(C(=O)c3ccc(NC4CC4)nc3)C2)n1` (configuration not stated) belongs -0.521%.

As for `CC(=O)N1CCC2(CC1)CCN(C(=O)c1cccc(C(F)(F)F)c1)C2`, the cytotoxicity at 70.5 h was -13.6%. In the case of `Cc1ncc(COc2cccc3c2NC(=O)CO3)s1`, the cytotoxicity at 70.5 h was 14.5%. To `CCc1nc(NCCc2c(C)nn(CC)c2C)c2cnn(C)c2n1` belongs -9.28%; to `Cc1nccn1C1CCCN(C(=O)c2cccc(OCC(N)=O)c2)C1` (configuration not stated), -10.4%; to `Cc1occc1C(=O)N1C[C@@H](OCc2cccnc2)[C@H]2OCCC[C@@H]21`, -21.3%. In the case of `O=C1CCCN1Cc1ncn2c1CN(C(=O)C1CC=CC1)CCC2`, the cytotoxicity at 70.5 h was -5.43%.

In the case of `CN(Cc1cccnc1)CC1CC12CCN(Cc1nccs1)CC2` (configuration not stated), the cytotoxicity at 70.5 h is 2.96%. As for `CCn1cc(NC(=O)C2CCN(Cc3noc(C4CC4)n3)CC2)cn1`, the cytotoxicity at 70.5 h was -8.03%. For `CN(C(=O)NCc1nccn1Cc1ccccc1)C1CC1`, the cytotoxicity at 70.5 h came to 9.16%.

For `Cc1nccc(-c2ccccc2)c1C(=O)N1CCC2(CC(=O)NC2=O)C1` (configuration not stated), the cytotoxicity at 70.5 h is -0.158%. To `COc1ccc(C)cc1CN(C)CC(N)=O` belongs -7.37%; to `c1cc(-c2cn3nccc3nc2C2CCCCC2)nc(N2CCCC2)n1`, -7.05%. In the case of `CCOC[C@@H]1CC[C@H]2[C@H](CCN2S(=O)(=O)c2ccc(F)cc2)O1`, the cytotoxicity at 70.5 h is -6.92%. To `COCCN1CCC(c2nc3ccccc3[nH]2)CC1` belongs -11%; to `COC(C)(C)CNC(=O)N1CCCC1c1c(C)n[nH]c1C` (configuration not stated), -13.9%; to `Cc1cc(CN2C[C@@H]3COC[C@]3(c3nnc(C)o3)C2)no1`, 16.2%. Turning to `N#Cc1cccc(CN2CC[C@@H]3[C@@H]2CC(=O)N3CCN2CCCC2)c1`, the cytotoxicity at 70.5 h was -9.81%.

Take `N#CC1(C(=O)N2CCN(Cc3ccon3)CC2)CCC1`: the cytotoxicity at 70.5 h was -20%. To `Cc1ccc(NC2CCN(C(=O)c3c(C)noc3C)CC2)nn1` belongs -2.81%; to `CCc1ncc2c(n1)CN(CC(=O)NC1CCCCNC1=O)CC2` (configuration not stated), 1.9%. `Fc1ccc(CN2CCCC(Cn3cncn3)C2)c2ncccc12` (configuration not stated): the cytotoxicity at 70.5 h is -5.13%.

On to `CC(CN1CCOCC1)OC(=O)c1ccccc1Cl` (configuration not stated), for which the cytotoxicity at 70.5 h was -19.2%. For `O=c1c2ccc(C(F)(F)F)cc2ncn1CCCN1CCCCC1CO` (configuration not stated), the cytotoxicity at 70.5 h came to 14.6%.

Turning to `Cc1cnn(CC2CCCN2C(=O)Cc2n[nH]c3ccccc23)c1` (configuration not stated), the cytotoxicity at 70.5 h was -14.5%.

`CCc1ncc(C(=O)N2C[C@@H](C)O[C@@H](C)C2)cn1`: the cytotoxicity at 70.5 h is -5%. For the compound `Cc1cc(CN2CCN(Cc3ccc(C#N)cc3F)CC2)no1`, the cytotoxicity at 70.5 h is 1.27%.

Regarding `CC(=O)N1CCC(Cc2cncc(-c3c(C)n[nH]c3C)n2)C1` (configuration not stated), the cytotoxicity at 70.5 h is -9.36%.

Take `CN(C[C@@H]1CCC[C@@H]2CN(c3ncccn3)C[C@@H]21)C1CC1`: the cytotoxicity at 70.5 h was -1.63%. On to `Oc1nnc(-c2cccs2)c2sc(N3CCCCC3)nc12`, for which the cytotoxicity at 70.5 h was -1.82%. Take `CNC(=O)c1cc(C2CCCNC2)n[nH]1` (configuration not stated): the cytotoxicity at 70.5 h was 21.1%. To `CCS(=O)(=O)NC1CCCN(c2cc(C)ccc2F)C1=O` (configuration not stated) belongs -1.61%. To `O=C1NCc2ccc(NC(=O)C3CCCN3c3nccs3)cc21` (configuration not stated) belongs -9.24%. For `Cc1ccc(C(=O)N2CCO[C@H]3[C@H](OCCN(C)C)CC[C@@H]32)cn1`, the cytotoxicity at 70.5 h is -1.99%.

With `O=C(NCc1ccccn1)N1CC=C(c2ccccc2)CC1`, the cytotoxicity at 70.5 h was -16.2%. Regarding `O[C@@H]1C[C@@H](c2nc(-c3ccccc3)no2)N(Cc2cccnc2)C1`, the cytotoxicity at 70.5 h is -2.41%. To `CCN1CCC(N2C[C@H]3OC(=O)N(CCc4cccc(Cl)c4)[C@H]3C2)CC1` belongs -0.155%.

On to `CC(=O)N1CCN(Cc2c(C)sc3ccccc23)CC(O)C1` (configuration not stated), for which the cytotoxicity at 70.5 h is -3.67%.

Take `CCOCCN1CCN(Cc2cccc(C(=O)N(C)C)c2)CC1C` (configuration not stated): the cytotoxicity at 70.5 h was -9.62%.

Turning to `CCn1ncc(Br)c1CN(C)S(=O)(=O)c1ccc(C)cc1`, the cytotoxicity at 70.5 h amounted to 8.37%. In the case of `COCCN1CCCC(O)(CN2CCN(c3cnccn3)CC2)C1=O` (configuration not stated), the cytotoxicity at 70.5 h is -3.08%. As to `CCOC(=O)c1sc2ccsc2c1CN`, the cytotoxicity at 70.5 h is -3.38%. For the compound `COc1ccccc1NC(=O)NCc1cn[nH]c1`, the cytotoxicity at 70.5 h is -7.77%. Take `O=C1CCC(C(=O)NCCOc2cccc(Cl)c2Cl)CN1` (configuration not stated): the cytotoxicity at 70.5 h was -13.1%. For `Cc1nn(C)c(C)c1NC(=O)c1cccc(CN2CC[C@H](O)C2)c1`, the cytotoxicity at 70.5 h is -0.546%.

Regarding `Cc1n[nH]c(C)c1-c1cnc(CC2CCN(C(C)C)CC2)cn1`, the cytotoxicity at 70.5 h was -2.78%. Consider `CCn1cc(CN2CCCN(C(=O)CCn3cc(C)cn3)CC2)cn1`, for which the cytotoxicity at 70.5 h is -12.3%. Consider `COC(=O)c1ccc(N2CCC(C(O)c3ccccc3)CC2)nn1` (configuration not stated), for which the cytotoxicity at 70.5 h was -4.29%. `CCc1[nH]ncc1C(=O)N1CCCC(n2cccn2)C1` (configuration not stated): the cytotoxicity at 70.5 h came to 3.94%.

Consider `Cc1cc(CNc2cccc(C(=O)N(C)c3ccccc3)c2)no1`, for which the cytotoxicity at 70.5 h was -0.804%. With `Cc1ccc(S(=O)(=O)N2CCCC3(CCCN3S(C)(=O)=O)C2)cc1F` (configuration not stated), the cytotoxicity at 70.5 h was 0.261%.

In the case of `Cc1cnn(CCC(=O)N2CCCC(c3nc(C)no3)C2)c1` (configuration not stated), the cytotoxicity at 70.5 h was 37.7%. Take `Cc1cc(C(=O)N2CCN(C(=O)CC(C)C)[C@@H]3CS(=O)(=O)C[C@@H]32)no1`: the cytotoxicity at 70.5 h is -11.9%. As to `CC(C)(NCC(=O)NCCC#N)c1ccc2c(c1)OCCO2`, the cytotoxicity at 70.5 h was -10.6%.

Consider `COc1ccc(CN2C[C@@H]3CN(Cc4ccncc4)C[C@@H]3C2=O)cc1`, for which the cytotoxicity at 70.5 h was -8.45%. Consider `Cc1nc(C2NC3(CCCC3)C(=O)N2CC2CC2)cs1` (configuration not stated), for which the cytotoxicity at 70.5 h is -5.61%. Consider `c1ccc(-c2nc(CNCC3CCCN3c3cccnn3)co2)cc1` (configuration not stated), for which the cytotoxicity at 70.5 h is 12.4%. To `CCOc1ncccc1CNC(=O)N1CCCC1c1cc(C)no1` (configuration not stated) belongs -12.6%.

Regarding `Cc1nc(C)c(C(=O)N2CCc3nnc(C4CCCCN4C)n3CC2)s1` (configuration not stated), the cytotoxicity at 70.5 h was -8.99%. Take `COCc1nc(N2CC[C@H](N(C)C)C2)c2cnn(C)c2n1`: the cytotoxicity at 70.5 h was -10%. To `CC(C1CCN(Cc2ccc(N(C)C)nc2)CC1)N(C)C` (configuration not stated) belongs -2.39%; to `CCc1ccc(CN2C[C@@H](C(=O)O)[C@H](c3ccccc3OC)C2)o1`, -1.56%. To `Cc1nc(C)n(C2CCCN(C(=O)c3ccnc(N(C)C)c3)C2)n1` (configuration not stated) belongs -3.3%. Turning to `COc1cccc(NC(=O)C2CC(=O)n3cnnc3S2)c1` (configuration not stated), the cytotoxicity at 70.5 h is 2.31%. To `CC(C)c1noc(CCNC(=O)N2CCC(O)(C(F)(F)F)C2)n1` (configuration not stated) belongs -14.8%.

For `CCc1ncc2c(n1)CN(CC(=O)Nc1cc(C)on1)CC2`, the cytotoxicity at 70.5 h turned out to be 12%.

With `CCC(Nc1nnnn1-c1ccccc1)C(=O)Nc1ccccc1C` (configuration not stated), the cytotoxicity at 70.5 h was -11%.

Take `CN(CCCc1nccn1C)C(=O)C1COc2ccccc2C1` (configuration not stated): the cytotoxicity at 70.5 h was -2.53%.

Regarding `CC(NCCn1cccn1)c1ccc(F)cc1F` (configuration not stated), the cytotoxicity at 70.5 h was -2.25%.

Turning to `CC(C)Cc1cc(C(=O)N2CCCN(c3cccnn3)CC2)[nH]n1`, the cytotoxicity at 70.5 h is -5.32%. For the compound `O=S(=O)(CCc1ccccc1)Cc1nc(C2CC2)no1`, the cytotoxicity at 70.5 h was -13%. On to `Fc1cc(CN2CCCC2Cn2cncn2)c2ncccc2c1` (configuration not stated), for which the cytotoxicity at 70.5 h came out at 4.94%.

Turning to `O=C(c1ccoc1)N1CC[C@@H]2O[C@@H](COCC3CCOCC3)CC[C@@H]21`, the cytotoxicity at 70.5 h was 16%. Consider `CCN(Cc1noc(C)n1)C(=O)CCc1scnc1C`, for which the cytotoxicity at 70.5 h came out at 3.89%.

As to `COCCC1(CO)CCCN(Cc2ccc(C(F)(F)F)nc2)C1` (configuration not stated), the cytotoxicity at 70.5 h was -1.12%. Turning to `CCn1ccnc1CN1CCN(Cc2ccc(C)o2)[C@@H]2CS(=O)(=O)C[C@@H]21`, the cytotoxicity at 70.5 h was -4.31%. As to `c1ccc(OCc2nnc3n2CCN(CC2CC2)C3)nc1`, the cytotoxicity at 70.5 h was -13.3%.

In the case of `CSc1nc2ncc3c(=O)n(CCN4CCCCC4)ccc3n2n1`, the cytotoxicity at 70.5 h was -4.31%.

As to `CCOC(=O)CCCNc1nc(C(C)(C)C)nc2c1cnn2C`, the cytotoxicity at 70.5 h is -3.02%. Take `O=C(C1CCC1)N1C[C@@H]2CC[C@H](C1)N(S(=O)(=O)c1ccccc1)C2`: the cytotoxicity at 70.5 h was -8.37%.

For the compound `Cc1nnc(N2CC[C@@]3(O)CCNC[C@H]3C2)c2ccccc12`, the cytotoxicity at 70.5 h is -12.3%.

Take `COCC(=O)N1CCCCC1c1ccncn1` (configuration not stated): the cytotoxicity at 70.5 h amounted to 10.7%. For `C=C(C)COc1ccccc1C(=O)NCCCc1nnn[nH]1`, the cytotoxicity at 70.5 h was -13%.
